This is an account of results in patent US20210236678A1, “HOUSEHOLD PRODUCT DELIVERING WARMING AND/OR TINGLING SENSATIONS” (TAKASAGO INTERNATIONAL CORPORATION, priority 2016, published 2021).

Experiment [1] deals with warming perception in the nose. Kind of experiment: Perception test for warming agents (panel smells samples; rating and ranking). The experiment is classed as in vivo. Conditions: panel of 20 subjects; for Mean rank (less warming = rank 1, more warming = rank 4) / Nemenyi multiple comparison test of warming ranking vs reference capsaicin: 1% in TEC; for Mean rank (less warming = rank 1, more warming = rank 4) / warming perception in the nose (rating), compared to the reference capsaicin: smelled; for warming perception in the nose (rating), compared to the reference capsaicin: 1% in Triethyl Citrate (TEC), scale 0 to 100, ANOVA and Student's t-test.

Another experiment has as its target T1, human TRPA1 (Homo sapiens, UniProt O75762).
T1 construct: expressed in transfected cells; host or cells: HEK-293
Kind of experiment: Screening on receptors TRPA1 (Fluo-8 calcium fluorescence, FLIPR, HEK-293 cells). As to conditions: for pEC50: HEK-293 cells stably transfected with human TRPA1, agonist, normalised to spilanthol EC100, elemi oil molarity assumes molecular weight of elemol; for agonist activity on TRPA1 compared to spilanthol (reference): HEK-293 cells with human TRPA1. It is filed as cell-based. Here is the method:
The following are the test protocols used in determining whether fragrance ingredients show a response on the TRPA1 and TRPV1 receptors which are associated with tingling and warming sensations respectively. In all cases, the reaction is measured by fluorescence imaging using high throughput screening equipment.
Method for Screening on Receptors TRPA1:
HEK-293 (Human Embryonic Kidney) cells stably transfected with human TRPA1 were grown in a culture medium of EMEM (medium Essential Medium Eagle with Earl's salts balanced salt solution (Lonza catalogue No BE12-125F), 5 mL of 200 mM Ultraglutamine 1 (Lonza Catalogue No BE17-605E/U1), 5 mL of 100× Penicillin/Streptomycin (Lonza Catalogue No DE17-602E) 50 mL of Fetal bovine serum (Euroclone Cat No ECS0180L) 2 mL of 100 mg/mL Genticin sulphate (G418 sulphate InvivoGen CatAnt-gn-5).
10,000 cells/well were seeded in a 384 MTP in complete medium. Then, after 24 hours, the culture medium was manually removed. The cells were loaded with 20 μL/well of 0.5× Fluo-8 NW dye in standard Tyrode's buffer (Screen Quest™ Fluo-8 No wash Calcium assay kit supplied by AAT Bioquest catalogue No 26316). The plate was incubated for 1 hour at room temperature in the dark. 10 μL/well of test chemaesthetic agents were injected and controlled with the FLIPR^TETRA (Molecular Devices). The emitted fluorescence signal at 520 nm was recorded for 3 minutes. The compound multiwall plate contained the samples at 8 different doses in quadruplicate data points. Dose response of the samples were performed starting from 100 mM concentration in 100% DMSO with a serial dilution of 1:2 and then diluted in assay buffer at the final concentration of 100 μM, 50 μM, 25 μM, 12.5 μM, 6 μM, 3 μM, 1.5 μM, and 0.7 μM.
In the compound plate were also present a dose response of the reference agonist at 8 concentrations and in duplicate. Spilanthol was the reference agonist for TRPA1 in this study. These reference controls dosed as 16 wells (duplicates for each concentration) of reference agonist at ECioo corresponded to the MAX signal response (100% activity).
There were also 16 wells of blanks, i.e. assay buffers without either a test sample or reference compound which corresponded to the MIN signal response (0% activity). MAX and MIN controls were used for data analysis (RZ' calculation) and normalization of compound activity.
For data analysis the response value was calculated as the maximum signal of the kinetic trace after the injection minus the median of the points before injection and multiplied by the normalization factor (NF). The normalisation factor was the baseline mean of all wells in the plate divided by the baseline of a specific well.
To calculate the % of activity of the sample the response value was normalized versus MAX signal controls and MIN Signal controls to obtain the activity % according to the following formula: […]
The normalized data in percent activity were then used to perform curve fitting and EC50 calculation corresponding to the concentration that gave 50% of activation of the receptor (within a curve fitting program within the data analysis software).

In experiment [2] the test system is tingling perception in the nose. In words: Perception test for tingling agents (panel smells samples; rating and ranking). It is filed as in vivo. Conditions: panel of 20 subjects, smelled. On the procedure:
The reference spilanthol is contained in jambu and known for its tingling effect on the skin/the tongue (U.S. Pat. No. 9,890,567; J. Paulraj et al., Advances in Pharmacological Sciences, Vol. 2013, Article ID 510298, 22 pages). The samples were prepared as solutions of the pure raw materials at 1% in Triethyl Citrate (TEC), and portions decanted into small jars for testing. In a first part of the evaluation, the subjects of the panel smell the samples one by one and rate them on the following scale: tingling perception in the nose: 0 (not at all) to 100 (very strong sensation). In a second part of the evaluation, the subjects of the panel rank the […] agents from the less tingling agent (rank 1) to the more tingling agents (rank 4). The mean values obtain for the ranking where as follows: […]

In a further experiment the target is T2, human TRPV1 (Homo sapiens, UniProt Q8NER1).
T2 construct: expressed in transfected cells; host or cells: CHO-K1
T2 sequence (Q8NER1 whole entry): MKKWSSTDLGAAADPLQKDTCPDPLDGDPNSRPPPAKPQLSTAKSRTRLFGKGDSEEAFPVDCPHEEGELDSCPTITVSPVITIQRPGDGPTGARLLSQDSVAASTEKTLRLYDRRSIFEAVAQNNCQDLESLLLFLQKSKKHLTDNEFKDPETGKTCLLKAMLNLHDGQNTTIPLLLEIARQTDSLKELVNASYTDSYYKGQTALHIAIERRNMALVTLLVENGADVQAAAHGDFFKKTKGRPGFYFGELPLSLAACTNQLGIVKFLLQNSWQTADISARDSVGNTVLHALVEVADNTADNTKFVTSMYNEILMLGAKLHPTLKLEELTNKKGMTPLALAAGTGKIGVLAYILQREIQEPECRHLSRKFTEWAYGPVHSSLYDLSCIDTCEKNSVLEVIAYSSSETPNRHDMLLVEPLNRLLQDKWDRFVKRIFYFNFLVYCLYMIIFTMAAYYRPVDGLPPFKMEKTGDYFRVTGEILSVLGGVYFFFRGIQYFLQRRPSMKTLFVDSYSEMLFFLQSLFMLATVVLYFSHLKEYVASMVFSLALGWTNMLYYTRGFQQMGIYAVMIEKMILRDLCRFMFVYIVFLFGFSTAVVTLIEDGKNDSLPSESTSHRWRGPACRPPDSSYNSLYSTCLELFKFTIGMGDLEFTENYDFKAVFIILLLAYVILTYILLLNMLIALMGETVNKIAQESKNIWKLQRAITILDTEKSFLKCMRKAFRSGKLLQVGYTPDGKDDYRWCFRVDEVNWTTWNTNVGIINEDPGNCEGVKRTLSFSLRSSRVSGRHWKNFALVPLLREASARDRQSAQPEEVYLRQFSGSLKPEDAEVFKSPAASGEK
In words: Screening on receptors TRPV1 (fluorescence imaging, CHO-K1 cells). It is filed as cell-based. Conditions: for agonist activity on TRPV1 compared to capsaicin (reference): CHO-K1 cells with human TRPV1.

For experiment [3], the system named is tingling sensation in the nose. Conditions: 3% in Triethyl Citrate (TEC); panel of 80 subjects; scale 0 to +100.
Experimental: Comparison of tingling effect between isopulegol and menthoxypropanediol
A panel of 80 subjects was selected to take part in a comparative test between isopulegol (available as Coolact (registered trademark) P) and menthoxypropanediol (CAS 87061-04-9, available as Coolact (registered trademark) 10).
The samples of isopulegol and menthoxypropanediol were prepared by dilution to 3% in Triethyl Citrate (TEC).
The subjects had to score whether they perceived a tingling sensation in the nose, on a scale of 0 (no sensation) to +100 (extremely tingling).

pEC50: −log10 of the molar value.

T1 sequence (O75762 whole entry): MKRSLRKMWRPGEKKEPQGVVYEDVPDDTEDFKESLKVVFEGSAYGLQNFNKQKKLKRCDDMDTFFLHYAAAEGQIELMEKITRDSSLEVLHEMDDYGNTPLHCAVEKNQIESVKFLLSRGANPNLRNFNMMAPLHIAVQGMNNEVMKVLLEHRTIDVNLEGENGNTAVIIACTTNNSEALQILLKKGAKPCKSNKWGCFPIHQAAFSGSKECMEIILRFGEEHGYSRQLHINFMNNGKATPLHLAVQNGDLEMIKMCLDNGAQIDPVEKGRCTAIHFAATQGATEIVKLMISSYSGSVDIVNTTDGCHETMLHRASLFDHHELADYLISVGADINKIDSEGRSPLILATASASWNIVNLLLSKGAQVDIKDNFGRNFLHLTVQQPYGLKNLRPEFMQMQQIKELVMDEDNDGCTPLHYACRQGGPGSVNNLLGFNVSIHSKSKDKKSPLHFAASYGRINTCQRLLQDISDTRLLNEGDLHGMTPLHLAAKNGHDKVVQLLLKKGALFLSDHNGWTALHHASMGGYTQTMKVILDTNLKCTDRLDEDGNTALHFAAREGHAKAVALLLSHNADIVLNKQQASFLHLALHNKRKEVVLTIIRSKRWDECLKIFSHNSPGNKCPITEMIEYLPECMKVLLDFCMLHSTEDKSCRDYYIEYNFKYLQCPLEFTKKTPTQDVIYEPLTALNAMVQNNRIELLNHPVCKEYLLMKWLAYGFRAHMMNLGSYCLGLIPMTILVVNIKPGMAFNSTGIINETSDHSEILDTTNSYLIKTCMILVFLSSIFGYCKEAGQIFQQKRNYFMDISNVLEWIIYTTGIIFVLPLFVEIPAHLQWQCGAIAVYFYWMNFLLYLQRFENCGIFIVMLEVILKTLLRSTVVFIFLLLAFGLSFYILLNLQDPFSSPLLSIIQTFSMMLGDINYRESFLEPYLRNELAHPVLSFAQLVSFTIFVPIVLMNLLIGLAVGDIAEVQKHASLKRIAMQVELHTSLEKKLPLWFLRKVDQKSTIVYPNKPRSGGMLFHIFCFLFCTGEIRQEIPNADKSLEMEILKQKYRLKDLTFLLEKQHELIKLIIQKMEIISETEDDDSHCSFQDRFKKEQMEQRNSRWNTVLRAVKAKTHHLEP

As for `COc1cc(CNC(=O)CCCC/C=C/C(C)C)ccc1O` [capsaicin, reference compound], the “Mean rank (less warming = rank 1, more warming = rank 4)” value in experiment [1] was 1.650.
Take `C/C=C/C=C\CC/C=C/C(=O)NCC(C)C` [spilanthol]: the pEC50 at human TRPA1 is 4.45. Moreover, in experiment [2] (1% in TEC), the “Mean rank (less tingling = rank 1, more tingling = rank 4)” value was determined as 1.150. In addition, the “tingling perception in the nose (rating), compared to the reference spilanthol” value in experiment [2] (1% in Triethyl Citrate (TEC), scale 0 to 100, ANOVA and Student's t-test) is “little effect at all”.
Turning to `CCCCOCc1ccc(O)c(OC)c1` [vanillyl butyl ether], in experiment [1], the “Nemenyi multiple comparison test of warming ranking vs reference capsaicin” value was “significantly more warming”; the “Mean rank (less warming = rank 1, more warming = rank 4)” value is listed as 2.925; the “warming perception in the nose (rating), compared to the reference capsaicin” value is on record as “improved warming perception”. At human TRPV1, the pEC50 was 5.12 and the “agonist activity on TRPV1 compared to capsaicin (reference)” value is on record as “weaker agonists for TRPV1 than capsaicin”.
Regarding `C=C(C)[C@@H]1CC[C@@H](C)C[C@H]1O` [isopulegol], on human TRPA1, the pEC50 is 4.24 and the “agonist activity on TRPA1 compared to spilanthol (reference)” value is listed as “comparable agonists for TRPA1”. Also, the “tingling sensation in the nose, isopulegol compared with menthoxypropanediol” value in experiment [3] is recorded as “improved tingling perception”.
Taken in the same sequence, the figures for `CC(C)[C@@H]1CC[C@@H](C)C[C@H]1OCC(O)CO` (stereo partly shown) [menthoxypropanediol] were 3.70, “comparable agonists for TRPA1” and “lower tingling sensation”.
`CCOCc1ccc(O)c(OC)c1` [vanillyl ethyl ether]: in experiment [1], the “Nemenyi multiple comparison test of warming ranking vs reference capsaicin” value is on record as “significantly more warming”; the “Mean rank (less warming = rank 1, more warming = rank 4)” value was 2.450; the “warming perception in the nose (rating), compared to the reference capsaicin” value is listed as “improved warming perception”. The “agonist activity on TRPV1 compared to capsaicin (reference)” value at human TRPV1 is reported as “weaker agonists for TRPV1 than capsaicin”.

Broadly, the pEC50 is −log10 of the EC50, conventionally taken in molar units.
